One assay has as its system DLD-1 BRCA2−/− cells. In words: Homologous recombination synthetic lethal inhibition of proliferation, DLD-1 BRCA2-/- (Cell Titre Glo 3D). It counts as cell-based. The conditions noted are these: Homo sapiens. Put shortly:
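Isogenic DLD-1 pair; BRCA2−/− seeded 3,000 cells/mL and read day 12, wt seeded 1,500 cells/mL and read day 7. 10-pt titration (top 10 μM, 3-fold), re-fed with compound day 6, 37 °C/5% CO2. CTG 3D endpoint; IC50 at 50% signal loss.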

Another assay relates to DLD-1 cells. In words: Inhibition of proliferation, DLD-1 BRCA2 wt control (Cell Titre Glo 3D). It is filed as cell-based. The settings on record: Homo sapiens. From the text:
This assay identifies anti-proliferative effects of POLQ compounds in the homologous recombination deficient colorectal cell line DLD-1 BRCA2−/− over 8-9 population doublings (7 days for DLD-1 and 12 days for DLD-1 BRCA2−/−). DLD1 BRCA2 wt are used as a control to detect cell toxic effects not specific to homologous recombination deficiency.
DLD-1 BRCA2−/− and DLD-1 cells were kept in continuous culture in Assay Medium (RPMI 1640 phenol red free (Sigma R7509) containing 1% GlutaMAX (Gibco 35050) and 10% Foetal Bovine Serum (Gibco 10270-106)). On the day of the assay cells in culture of ˜80-90% confluent were used. Cell monolayers were washed with 10 mL PBS, then removed and added 2 mL TrypLE Express (Gibco 12604). The cells with TrypLE Express were incubated for 5 minutes in cell culture incubator and then the detached cells resuspend in 15 mL Assay Medium. Cells were counted using a ViCell and the cell images were monitored for clumps of cells, ideally they should be single or <3 cell clusters. The cells were diluted to 3,000 cells/mL of DLD-1 BRCA2−/− and 1,500 cells/mL of DLD-1 in Assay Medium and 100 μL added per well of transparent bottomed, black, tissue culture-treated 96-well plates (CoStar, No. 3904) Assay Ready Plates. The Assay Ready Plates contain a 10 point 10 μM to 0.51 nM dose range with three-fold dilutions in DMSO with a final volume of 100 nL. The plates were incubated at 37° C. with 5% C02 for 6 days. On day 6, 100 μL/well of Assay Medium was added to duplicate Assay Ready Plates. 90 μL of culture medium was removed from the cell plates and replenished with the Assay Media and compounds from the duplicate Assay Ready Plates using the Bravo. The plates were further incubated at 37° C. with 5% CO2. On day 7 the plates containing DLD-1 and Cell Titre Glo 3D (Promega G9683) were equilibrated to room temperature, then 60 μL of Cell Titre Glo 3D was added per well and incubated on a shaking platform for 30 min. Plates were read on the Envision measuring luminescence for 1 second per well. On day 12 the plates containing DLD-1 BRCA2−/− cells and Cell Titre Glo 3D (Promega G9683) were equilibrated to room temperature, then 60 μL Cell Titre Glo 3D added per well and incubated on a shaking platform for 30 min. Plates were read on the Envision measuring luminescence for 1 second per well. The data was exported into a suitable software package (such as Genedata) to perform curve fitting analysis. Inhibition of cell proliferation was expressed as an IC5o value and was determined by calculation of the concentration of compound that was required to give a 50% reduction of the average maximum Total Intensity signal.

Where [1] appears, read: DLD-1, first proliferation column (c5), taken as DLD-1 BRCA2-/-, read-out: POLQ PD Prolif Lumin (converted).
Setting [2] is: DLD-1, second proliferation column (c6), taken as DLD-1 BRCA2 wt, read-out: POLQ PD Prolif Lumin (converted).
Setting [3] is: DLD-1, DLD-1 BRCA2 −/−, mean, read-out: POLQ PD Prolif Lumin BRCA2 −/− mean pIC50 (converted).
The mark [4] stands for this setting: DLD-1, DLD1 BRCA2 wt, mean, read-out: POLQ PD Prolif Lumin DLD1 mean pIC50 (converted).
Setting [5] is: DLD-1, 288 h, DLD-1 BRCA2−/−, 12 days, Cell Titre Glo 3D, read-out: POLQ PD Prolif Lumin BRCA2 −/− Mean pIC50 (converted).
Where [6] appears, read: DLD-1, 168 h, DLD-1 (BRCA2 wt control), 7 days, Cell Titre Glo 3D, read-out: POLQ PD Prolif Lumin DLD1 Mean pIC50 (converted).
[7] abbreviates: DLD-1, 288 h, DLD-1 BRCA2−/− cells, 12 days, read-out: POLQ PD Prolif Lumin BRCA2 −/− mean pIC50 (converted).
Setting [8] is: DLD-1, 168 h, DLD-1 BRCA2 wt cells, 7 days, read-out: POLQ PD Prolif Lumin DLD1 mean pIC50 (converted).
Setting [9] is: DLD-1, DLD-1 BRCA2 −/− cells, mean, read-out: POLQ PD Prolif Lumin BRCA2 −/− mean pIC50 (converted).
Setting [10] is: DLD-1, DLD1 BRCA2 wt cells, mean, read-out: POLQ PD Prolif Lumin DLD1 mean PIC50 (converted).

Where two headings read alike, the source gives them in different places.

Take `CC1(Oc2ncnc3c2nc(-c2ccc(OCCN4CCNCC4)cc2Cl)n3Cc2ccnc(Cl)c2)CC1` [Example T378, 8-(2-chloro-4-(2-(piperazin-1-yl)ethoxy)phenyl)-9-((2-chloropyridin-4-yl)methyl)-6-(1-methylcyclopropoxy)-9H-purine]: the IC50 in the assay with DLD-1 BRCA2−/− cells (setting [1]) was 1580 nM; in the assay with DLD-1 cells (setting [2]), over 10000 nM.

Turning to `Cc1cnc(Cn2c(-c3ccc(OCCCN4CCCC4)cc3Cl)nc3c(OC4(C)CC4)ncnc32)s1` [Example T388, 2-((8-(2-chloro-4-(3-(pyrrolidin-1-yl)propoxy)phenyl)-6-(1-methylcyclopropoxy)-9H-purin-9-yl)methyl)-5-methylthiazole], the figures for the IC50 with DLD-1 BRCA2−/− cells (setting [1]) and in the assay on DLD-1 cells (setting [2]) were 251 nM and over 10000 nM, respectively.

Take `COc1ccc(Cl)cc1Cn1c(-c2ccc(OCCOC(C)(C)C(=O)O)cc2Cl)nc2c(OC3(C)CC3)ncnc21` [Example U54, 2-(2-(3-chloro-4-(9-(5-chloro-2-methoxybenzyl)-6-(1-methylcyclopropoxy)-9H-purin-8-yl)phenoxy)ethoxy)-2-methylpropanoic acid]: the IC50 in the assay on DLD-1 BRCA2−/− cells (setting [3]) was 126 nM; with DLD-1 cells (setting [4]), over 10000 nM.

As to `COc1ccc(Cl)cc1Cn1c(-c2ccc(OCC[C@@H](C)C(=O)O)cc2Cl)nc2c(OC3(C)CC3)ncnc21` [Example 47, (R)-4-(3-chloro-4-(9-(5-chloro-2-methoxybenzyl)-6-(1-methylcyclopropoxy)-9H-purin-8-yl)phenoxy)-2-methylbutanoic acid], the IC50 was 25.1 nM with DLD-1 BRCA2−/− cells (setting [5]) and over 7940 nM in the assay on DLD-1 cells (setting [6]).

As to `CC(=O)N1CCN(CCCOc2cc(C)c(-c3nc4c(OC5(C)CC5)ncnc4n3Cc3ccccc3)cn2)CC1` [Example G3, 1-(4-(3-((5-(9-benzyl-6-(1-methylcyclopropoxy)-9H-purin-8-yl)-4-methylpyridin-2-yl)oxy)propyl)piperazin-1-yl)ethan-1-one], the IC50 with DLD-1 BRCA2−/− cells (setting [7]) is 1000 nM; in the assay on DLD-1 cells (setting [8]) it was 6310 nM.

Take `CNCCOc1ccc(-c2nc3c(OC4(C)CC4)ncnc3n2Cc2ncc(C)s2)c(Cl)c1` [Example T34, 2-(3-chloro-4-(6-(1-methylcyclopropoxy)-9-((5-methylthiazol-2-yl)methyl)-9H-purin-8-yl)phenoxy)-N-methylethan-1-amine]: the IC50 in the assay with DLD-1 BRCA2−/− cells (setting [9]) is 501 nM; in the assay on DLD-1 cells (setting [10]), over 10000 nM.

Consider `C[C@@H](CCOc1cccc(-c2nc3c(OC4(C)CC4)ncnc3n2Cc2cc(Cl)ccc2C#N)c1Cl)C(=O)O` [Example U87, (S)-4-(2-chloro-3-(9-(5-chloro-2-cyanobenzyl)-6-(1-methylcyclopropoxy)-9H-purin-8-yl)phenoxy)-2-methylbutanoic acid], for which the IC50 was 15.8 nM with DLD-1 BRCA2−/− cells (setting [3]) and over 10000 nM in the assay on DLD-1 cells (setting [4]).

Consider `CN1CCN(CCOc2ccc(-c3nc4c(OC5(C)CC5)ncnc4n3Cc3ccccc3)c(F)c2F)CC1` [Example H5, 9-benzyl-8-(2,3-difluoro-4-(2-(4-methylpiperazin-1-yl)ethoxy)phenyl)-6-(1-methylcyclopropoxy)-9H-purine], for which the IC50 in the assay with DLD-1 BRCA2−/− cells (setting [7]) is 398 nM; in the assay on DLD-1 cells (setting [8]), 7940 nM.

Consider `C[C@H]1C(=O)NCCN1CCOc1ccc(-c2nc3c(OC4(C)CC4)ncnc3n2Cc2ccccc2)c(Cl)c1` [Example H19, (S)-4-(2-(4-(9-benzyl-6-(1-methylcyclopropoxy)-9H-purin-8-yl)-3-chlorophenoxy)ethyl)-3-methylpiperazin-2-one], for which the IC50 in the assay with DLD-1 BRCA2−/− cells (setting [7]) was 63.1 nM; in the assay on DLD-1 cells (setting [8]), over 10000 nM.

On to `CC1(Oc2ncnc3c2nc(-c2ccc(OCCN4CC[C@@H](O)C4)cc2Cl)n3Cc2ccccc2)CC1` [Example H13, (R)-1-(2-(4-(9-benzyl-6-(1-methylcyclopropoxy)-9H-purin-8-yl)-3-chlorophenoxy)ethyl)pyrrolidin-3-ol], for which the values for the IC50 in the assay with DLD-1 BRCA2−/− cells (setting [7]) and with DLD-1 cells (setting [8]) were 100 nM and 3160 nM, respectively.

For the molecule `Cc1ccnc(Cn2c(-c3ccc(OCCCS(C)(=O)=O)cc3Cl)nc3c(OC4(C)CC4)ncnc32)c1` [Example T234, 8-(2-chloro-4-(3-(methylsulfonyl)propoxy)phenyl)-6-(1-methylcyclopropoxy)-9-((4-methylpyridin-2-yl)methyl)-9H-purine], the IC50 with DLD-1 BRCA2−/− cells (DLD-1, DLD-1 BRCA2-/- proliferation, column head only partly shown, read-out: POLQ PD Prolif Lumin (converted)) was 200 nM; in the assay on DLD-1 cells (DLD-1, DLD-1 BRCA2 wt control proliferation, column head only partly shown, read-out: POLQ PD Prolif Lumin (converted)), over 10000 nM.

For `Cc1cc(OCCN2CCCC2)ncc1-c1nc2c(OC3(C)CC3)ncnc2n1Cc1ccccc1` [Example 21, 9-Benzyl-8-(4-methyl-6-(2-(pyrrolidin-1-yl)ethoxy)pyridin-3-yl)-6-(1-methylcyclopropoxy)-9H-purine], the IC50 in the assay with DLD-1 BRCA2−/− cells (setting [7]) is 398 nM; with DLD-1 cells (setting [8]), over 10000 nM.

In the case of `CC1(Oc2ncnc3c2nc(-c2ccc(OCCCN4CC(O)C4)cc2Cl)n3Cc2cc(C(F)(F)F)ccn2)CC1` [Example T425, 1-(3-(3-chloro-4-(6-(1-methylcyclopropoxy)-9-((4-(trifluoromethyl)pyridin-2-yl)methyl)-9H-purin-8-yl)phenoxy)propyl)azetidin-3-ol], the IC50 in the assay on DLD-1 BRCA2−/− cells (DLD-1, proliferation, luminescence, taken as DLD-1 BRCA2-/-, read-out: POLQ PD Prolif Lumin (converted)) was 501 nM; in the assay with DLD-1 cells (DLD-1, proliferation, luminescence, second Prolif column (c6), taken as DLD-1 BRCA2 wt control, read-out: POLQ PD Prolif Lumin (converted)), over 10000 nM.

For the molecule `Cc1ccnc(Cn2c(-c3ccc(OC[C@@H](C)O)cc3Cl)nc3c(OC4(C)CC4)ncnc32)c1` [Example 37, (R)-1-(3-Chloro-4-(6-(1-methylcyclopropoxy)-9-((4-methylpyridin-2-yl)methyl)-9H-purin-8-yl)phenoxy)propan-2-ol], the IC50 was 126 nM in the assay on DLD-1 BRCA2−/− cells (setting [5]) and over 10000 nM in the assay on DLD-1 cells (setting [6]).

For the molecule `CC1(Oc2ncnc3c2nc(-c2ccc(OCCCN4CCNCC4)cc2Cl)n3Cc2ccccc2)CC1` [Example D18, 9-benzyl-8-(2-chloro-4-(3-(piperazin-1-yl)propoxy)phenyl)-6-(1-methylcyclopropoxy)-9H-purine], the results for the IC50 in the assay with DLD-1 BRCA2−/− cells (setting [7]) and in the assay on DLD-1 cells (setting [8]) were 126 nM and 3160 nM, respectively.

As to `COc1ccc(Cl)cc1Cn1c(-c2ccc(OCC(C)CC(=O)O)cc2Cl)nc2c(OC3(C)CC3)ncnc21` (racemic) [Example U42, 4-(3-chloro-4-(9-(5-chloro-2-methoxybenzyl)-6-(1-methylcyclopropoxy)-9H-purin-8-yl)phenoxy)-3-methylbutanoic acid], the IC50 in the assay on DLD-1 BRCA2−/− cells (setting [3]) was 39.8 nM; with DLD-1 cells (setting [4]), over 10000 nM.

With `Cc1cnc(Cn2c(-c3ccc(O[C@H]4CCNC4)cc3Cl)nc3c(OC4(C)CC4)ncnc32)s1` [Example T70, (S)-2-((8-(2-chloro-4-(pyrrolidin-3-yloxy)phenyl)-6-(1-methylcyclopropoxy)-9H-purin-9-yl)methyl)-5-methylthiazole], the IC50 with DLD-1 BRCA2−/− cells (setting [9]) was 631 nM; in the assay on DLD-1 cells (setting [10]), over 10000 nM.

(Values after patent US20250195530A1, “POLQ INHIBITORS” (ASTRAZENECA AB, priority 2022, published 2025).)
